Data reported in patent US8921272B2, “Herbicidal composition” (Ishihara Sangyo Kaisha, Ltd., priority 2011, dated 2014).

Key:
Assay type in all cases: in vivo
[1] = test system: bermuda grass (Cynodon dactylon (L.) Pers.); experiment: Test Example 2: foliar treatment pot test, visually observed growth inhibition of bermuda grass; details: 504 h, foliar treatment at 4.0 to 4.5 leaf stage, 0.25 vol % Agral, 21 days after treatment, read-out: Growth inhibition rate (%) of bermuda grass, Measured value
From the text: (§1) When the herbicidal activity in a case where two active ingredients are combined, is larger than the simple sum of the respective herbicidal activities of the two active ingredients (the expected activity), it is called a synergistic effect. The activity expected by the combination of two active ingredients can be calculated as follows (Colby S. R., “Weed”, vol. 15, p. 20-22, 1967). E=α+β−(α×β÷100) where α: growth inhibition rate when treated with x (g/ha) of herbicide X,
(§2) β: growth inhibition rate when treated with y (g/ha) of herbicide Y,
(§3) E: growth inhibition rate expected when treated with x (g/ha) of herbicide X and y (g/ha) of herbicide Y.
(§4) That is, when the actual growth inhibition rate (measured value) is larger than the growth inhibition rate by the above calculation (calculated value), the activity by the combination can be regarded as showing a synergistic effect.
(§5) Growth inhibition rate (%)=0 (equivalent to the non-treated area) to 100 (complete kill)
Upland field soil was put into a 1/1,000,000 ha pot, and seeds of bermuda grass (Cynodon dactylon (L.) Pers.) were sown. […]

[2] = test system: green kyllinga (Cyperus brevifolius var. leiolepis); experiment: Test Example 3: foliar treatment pot test, visually observed growth inhibition of green kyllinga; details: 672 h, read-out: Growth inhibition rate (%) of green kyllinga, Measured value
From the text: as §1, §2, §3, §4, §5
Upland field soil was put into a 1/1,000,000 ha pot, and tubers of green kyllinga (Cyperus brevifolius var. leiolepis) were planted. […]

corn (Zea mays L.) = experiment: Test Example 4: soil treatment pot test, visually observed growth inhibition of corn (crop plant which became weeds); details: soil treatment one day after sowing, 28 days after treatment, read-out: Growth inhibition rate (%) of corn, Measured value
From the text: When the herbicidal activity in a case where two active ingredients are combined, is larger than the simple sum of the respective herbicidal activities of the two active ingredients (the expected activity), it is called a synergistic effect. The activity expected by the combination of two active ingredients can be calculated as follows (Colby S. R., “Weed”, vol. 15, p. 20-22, 1967). […] β: growth inhibition rate when treated with y (g/ha) of herbicide Y, E: growth inhibition rate expected when treated with x (g/ha) of herbicide X and y (g/ha) of herbicide Y. That is, when the actual growth inhibition rate (measured value) is larger than the growth inhibition rate by the above calculation (calculated value), the activity by the combination can be regarded as showing a synergistic effect. […] One day later, water dispersible granules containing flazasulfuron as an active ingredient (tradename: SHIBAGEN DF) and water dispersible granules containing amicarbazone as an active ingredient ([…]) in predetermined amounts were diluted with water (corresponding to 200 Uha) and applied for soil treatment by a small sprayer.

[3] = test system: goosegrass (Eleusine indica (L.) Gaertn.); experiment: Test Example 1: soil treatment pot test, visually observed growth inhibition of goosegrass; details: soil treatment one day after sowing, 14 days after treatment, 0 = non-treated, 100 = complete kill, read-out: Growth inhibition rate (%) of goosegrass, Measured value
From the text: When the herbicidal activity in a case where two active ingredients are combined, is larger than the simple sum of the respective herbicidal activities of the two active ingredients (the expected activity), it is called a synergistic effect. The activity expected by the combination of two active ingredients can be calculated as follows (Colby S. R., “Weed”, vol. 15, p. 20-22, 1967). […] β: growth inhibition rate when treated with y (g/ha) of herbicide Y, E: growth inhibition rate expected when treated with x (g/ha) of herbicide X and y (g/ha) of herbicide Y. That is, when the actual growth inhibition rate (measured value) is larger than the growth inhibition rate by the above calculation (calculated value), the activity by the combination can be regarded as showing a synergistic effect. […] Further, in accordance with the Colby's formula, the growth inhibition rate (%) (calculated value) was calculated.

| Compound | inhibition at 150 g/ha ([1]; dose 150 g/ha) [%] | inhibition at 1250 g/ha ([2]; foliar) [%] | inhibition at 2500 g/ha (corn (Zea mays L.); dose 2500 g/ha) [%] | inhibition at 1050 g/ha ([3]; dose 1050 g/ha) [%] | inhibition at 200 g/ha ([1]; dose 200 g/ha) [%] | inhibition at 5 g/ha ([2]; dose 5 g/ha, foliar treatment at 6.0 to 7.0 cm, 0.025 vol % Agral, 28 days after treatment) [%] | inhibition at 5 g/ha (corn (Zea mays L.); dose 5 g/ha) [%] | inhibition at 37.5 g/ha ([3]; dose 37.5 g/ha) [%] |
| --- | --- | --- | --- | --- | --- | --- | --- | --- |
| CC(C)c1nn(C(=O)NC(C)(C)C)c(=O)n1N [Amicarbazone, 4-amino-N-tertiary butyl-4,5-dihydro-3-isopropyl-5-oxo-1,2,4-1H-triazole-1-carboxamide] | 0 | 69 | 87 | 68 |  |  |  |  |
| COc1cc(OC)nc(NC(=O)NS(=O)(=O)c2ncccc2C(F)(F)F)n1 [Flazasulfuron, 1-(4,6-dimethoxypyrimidin-2-yl)-3-(3-trifluoromethyl-2-pyridylsulfonyl)urea] |  |  |  |  | 15 | 0 | 40 | 53 |
